Test results taken from patent publication US12121514B2, “Nonselective metabotropic glutamate receptor activators for treatment of attention deficit disorder and 22Q syndrome” (THE CHILDREN'S HOSPITAL OF PHILADELPHIA, priority 2015, dated 2024).

How the values were obtained:
[1] = tested on: adolescent subjects with ADHD and at least one genetic alteration in an mGluR network gene; experiment: Actigraphy, Phase Ib trial of NFC-1; type: in vivo, human
Description: Actigraphy is non-invasive monitoring of human rest/activity cycles, using an actigraph worn by the patient to document body movements. Actigraphs can be worn during school, for example, to measure activity levels. Actigraphy analysis can measure changes in sleep and hyperactivity that may be seen with treatment for ADHD.
All efficacy assessments, except actigraphy, were made at study enrollment (“enrollment baseline”) and again, including actigraphy, once-per-week for the placebo week (“week 1” or “placebo baseline”) and at each of the 4 weeks of NFC-1 treatment. These efficacy measures include items 1-18 of the Vanderbilt scale assessing symptoms related to inattentiveness and hyperactivity-impulsiveness as well as additional questions 19-47 of the Vanderbilt scale assessing other behavioral symptoms (conducted by parent), actigraphy for quantitative measurement of activity, Quotient® ADHD test for objective measurement of micro-motion and shifts in attention state, PERMP-Math test, and CGI-I and CGI-S for assessment of global functioning. […]

[2] = tested on: subjects with ADHD and ODD; experiment: Vanderbilt ODD score (items 19-26), Phase Ib trial of NFC-1; type: in vivo, human
Description: The Vanderbilt Rating Scale is a measure that can be completed by parents or teachers (separate forms, see Vanderbilt Rating Scale Parents and Vanderbilt Rating Scale Teachers). The Vanderbilt scale rates the child's behavior on items such as attention, finishing tasks, hyperactivity, difficulty waiting, and measures of conduct or oppositional defiant disorders—as well as measures of overall school performance and interactions with others. The first 18 items on the Vanderbilt scale correspond to those of the ADHD Rating Scale IV above while the Vanderbilt scale also includes items 19-47 related to other mental disorders including ODD (items 19-26), conduct disorder (items 27-40), anxiety (items 41, 42, and 47), and depression (items 43-46). Each of the behavioral assessment items on the Vanderbilt Scale are rated 0, 1, 2, or 3, with 0=never occurring; 1=occasionally, 2=often, and 3=very often. Thus, the ADHD Rating Scale IV, ADHD Rating Scale V, and items 1-18 of the Vanderbilt Rating Scale are equivalent scales, while additional items on the Vanderbilt Scale assess co-morbid phenotypes and disorders.
Subjects were identified as ODD from the K-SADS-P V6 performed at screening and Vanderbilt scores for ODD at screening and at week 1(scores of 2 or 3 on at least 4 of the 8 Vanderbilt items that assess ODD, i.e., items 19 to 26). By the end of the dose escalation phase of the trial at week 5, four of the twelve subjects (nos. 108, 117, 125, and 128) no longer met the screening criteria for ODD.

[3] = out of the 13 ODD subjects, week 1 to week 5

O=C1CC[C@H](C(=O)N2CCCCC2)N1 [NFC-1, fasoracetam monohydrate]
bursts of medium/high intensity movements (actigraphy) ([1]; 400 mg bid in comparison with placebo, P<0.001): significant reduction | reduction in moderate to vigorous physical activity (MVPA) ([1]; week 1 (placebo) to week 5, genetic Tiers 1, 2 and 3): most prominent in 400 mg bid dose group | Vanderbilt ODD score (items 19-26, maximum 24) ([2]; Subject 108, end of week 5, placebo baseline 19): 7 | Vanderbilt ODD score (items 19-26, maximum 24) ([2]; Subject 117, week 5, placebo baseline 19): 8 | Vanderbilt ODD score (items 19-26, maximum 24) ([2]; Subject 128, week 5, placebo baseline 24): 8 | improvement in Vanderbilt ODD score ([2]; Subject 130, week 1 to week 5): 3 points | Vanderbilt ODD score ([2]; Subject 130, week 5, out of 24, 24/24 at week 1): 21 | subjects with improved Vanderbilt ODD scores ([2]; of 13 ODD subjects, week 1 to week 5): 13 subjects | subjects showing improvements of 2 or more points in Vanderbilt ODD items ([2]; of the remaining eight ODD subjects, week 1 to week 5): four | subjects no longer meeting the screening criteria for ODD ([2]; of the twelve ADHD/ODD subjects, week 5): four | subjects with improvement of at least 3 points in Vanderbilt ODD score [2, 3]: Eleven | subjects with improvement of at least 8 points in Vanderbilt ODD score [2, 3]: 6 subjects | Vanderbilt ODD scores in subjects on anti-psychotic medications ([2]; subjects 111 and 126 on aripiprazole, subject 122 on risperidone, between weeks 1 and 5): improved
